# pIC50: −log10 of the molar value. Entries after “also recorded” stand apart in the source; their conditions may differ. Counter-ions that a name gives are not always drawn. Like-named read-outs stand apart in the source and are kept apart here.
# Assays:
# Chk-1 kinase = Chk-1 kinase (Homo sapiens (Human), UniProt O14757); test: Chk-1 kinase inhibiting activity (33P-ATP filter assay, CHKtide substrate); format: biochemical
# Procedure: The compounds of the invention were tested for activity against Chk-1 kinase using the materials and protocols set out below.
# Base Reaction buffer: 20 mM Hepes (pH 7.5), 10 mM MgCl2, 1 mM EGTA, 0.02% Brij35, 0.02 mg/ml BSA, 0.1 mM Na3VO4, 2 mM DTT, 1% DMSO
# *Required cofactors are added individually to each kinase reaction
# (i) Prepare indicated substrate in freshly prepared Base Reaction Buffer
# (ii) Deliver any required cofactors to the substrate solution above
# (iii) Deliver indicated kinase into the substrate solution and gently mix
# (iv) Deliver compounds in DMSO into the kinase reaction mixture
# (v) Deliver ^33P-ATP (specific activity 0.01 μCi/μl final) into the reaction mixture to initiate the reaction.
# (vi) Incubate kinase reaction for 120 minutes at room temperature
# (vii) Reactions are spotted onto P81 ion exchange paper (Whatman #3698-915)
# (viii) Wash filters extensively in 0.1% phosphoric acid.
# (ix) Dry filters and measure counts in scintillation counter
# Recombinant full length construct, N-terminal GST tagged, purified from insect cells.
# No special measures were taken to activate this kinase.
# Final concentration in assay=0.5 nM
# Peptide sequence: [[…]]
# Final concentration in assay=20 μM
# No additional cofactors are added to the reaction mixture
# HT29 cells = test: Sensitisation of HT29 cells to SN38 (Alamar blue cell growth); format: cell-based, human; conditions: for fold shift in the IC50 value of SN38: HT29 cells; for Cell potentiation factor: SN38 sensitisation assay in HT-29 cells
# Procedure: Studies were carried out to test the sensitising effect of compounds of the invention on the ability of the DNA damaging compound 7-ethyl-10-hydroxycamptothecin (SN38), an active metabolite of the anti-cancer drug irinotecan, to inhibit cell growth in HT29 cells.
# The following protocol was used:
# (a) HT29 cells were seeded in 96-well plates at a concentration of 3000 cells per well and allowed to adhere overnight prior to addition of compound or vehicle control.
# (b) SN38 was prepared from a 10 mM DMSO stock to give a final concentration range of 1 μM, 300 nM, 100 nM, 30 nM, 10 nM, 3 nM, 1 nM, and vehicle control.
# (c) Test compounds were prepared from 10 mM DMSO stocks to typically give a final concentration range of 3 μM, 1 μM, 0.3 μM. 0.1 μM, 0.03 μM and vehicle control. The final DMSO content was 0.4%.
# (d) Test compounds were incubated with the cells for 72 h at 37° C. 5% CO2 in a humidified atmosphere.
# (e) Alamar blue 10% (v/v) was then added and incubated for a further 6 h, and fluorescent product detected using the BMG FLUOstar plate reader.
# (f) Data were analysed using a 4-parameter logistic equation in GraphPad Prism.
# Sensitisation is determined by the enhancement in IC50 of SN38 by the addition of the Chk-1 kinase inhibitor. In the protocol described above, the IC50 for SN-38 is determined the presence of varying doses of the Chk-1 inhibitor. The fold shift represents a decrease in IC50 for SN-38 at a dose of Chk-1 inhibitor that has no effect by itself.
# [1] = Chk-1 kinase, Table 3, read-out: IC50
# [2] = ranges given, read-out: IC50 values against Chk-1 kinase
# [3] = comparative tests, Example 70, read-out: Chk-1 IC50
# Chain of Chk-1 kinase (O14757 whole entry): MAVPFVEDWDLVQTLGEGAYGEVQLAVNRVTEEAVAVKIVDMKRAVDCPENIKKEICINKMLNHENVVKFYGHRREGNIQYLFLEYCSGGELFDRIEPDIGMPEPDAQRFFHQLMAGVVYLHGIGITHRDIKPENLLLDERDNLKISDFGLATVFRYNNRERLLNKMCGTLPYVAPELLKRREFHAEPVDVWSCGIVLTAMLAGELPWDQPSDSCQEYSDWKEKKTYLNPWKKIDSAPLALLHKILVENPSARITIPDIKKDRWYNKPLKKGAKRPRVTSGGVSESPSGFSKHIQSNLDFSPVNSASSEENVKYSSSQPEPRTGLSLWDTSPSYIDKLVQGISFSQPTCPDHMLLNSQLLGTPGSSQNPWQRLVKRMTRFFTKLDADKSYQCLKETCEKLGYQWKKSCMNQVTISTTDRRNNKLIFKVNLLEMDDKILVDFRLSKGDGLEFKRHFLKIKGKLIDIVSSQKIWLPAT
pIC50 (Chk-1 kinase; [1]),pIC50 (Chk-1 kinase; [2]),pIC50 (Chk-1 kinase; [3]),SMILES,fold shift in the IC50 value of SN38 (HT29 cells; test compound at 1 μM),fold shift in the IC50 value of SN38 (HT29 cells; test compound at 3 μM),Cell potentiation factor (HT29 cells; compound at 3 μM),fold shift in the IC50 value of SN38 (HT29 cells; test compound at 10 μM),Cell potentiation factor (HT29 cells; compound at 10 μM)
8.05,> 8.00,–,"COc1cc(CNCc2ccc(F)cc2)ccc1NC(=O)Nc1cnc(C#N)cn1 [Example 57, 1-(5-Cyano-pyrazin-2-yl)-3-{4-[(4-fluoro-benzylamino)-methyl]-2-methoxy-phenyl}-urea hydrochloride]",two,greater than ten,–,–,–
7.48,7.00 to 8.00,–,"COc1cc(CCNCc2ccc(F)cc2)ccc1NC(=O)Nc1cnc(C)cn1 [Example 27, 1-{4-[2-(4-Fluoro-benzylamino)-ethyl]-2-methoxy-phenyl}-3-(5-methyl-pyrazin-2-yl)-urea hydrochloride]",–,three,–,–,–
8.92,> 8.00,8.10,"COc1cc(CCNCc2cccc(F)c2)c(Cl)cc1NC(=O)Nc1cnc(C#N)cn1 [Example 19, 1-{5-Chloro-4-[2-(3-fluoro-benzylamino)-ethyl]-2-methoxy-phenyl}-3-(5-cyano-pyrazin-2-yl)-urea hydrochloride]",–,–,50 fold,–,–
7.92,–,–,"N#Cc1cnc(NC(=O)Nc2ccc(CCNCc3cccc(N4CCOCC4)c3)c(Cl)c2)cn1 [Example 39, 1-{3-Chloro-4-[2-(3-morpholin-4-yl-benzylamino)-ethyl]-phenyl}-3-(5-cyano-pyrazin-2-yl)-urea]",–,three,–,–,–
6.84,6.00 to 7.00,–,"CN(CCc1ccc(NC(=O)Nc2cnc(C#N)cn2)cc1Cl)Cc1ccc(F)cc1 [Example 11, 1-(3-Chloro-4-{2-[(4-fluoro-benzyl)-methyl-amino]-ethyl}-phenyl)-3-(5-cyano-pyrazin-2-yl)-urea]",–,three,–,–,–
7.68,7.00 to 8.00,–,"N#Cc1cnc(NC(=O)Nc2ccc(OCCNCc3ccc(F)cc3)c(Cl)c2)cn1 [Example 26, 1-{3-Chloro-4-[2-(4-fluoro-benzylamino)-ethoxy]-phenyl}-3-(5-cyano-pyrazin-2-yl)-urea]",–,three,–,–,–
9.35,> 8.00,–,"COc1cc(CCNCc2ccc(F)cc2)c(Br)cc1NC(=O)Nc1cnc(C#N)cn1 [Example 42, 1-{5-Bromo-4-[2-(4-fluoro-benzylamino)-ethyl]-2-methoxy-phenyl}-3-(5-cyano-pyrazin-2-yl)-urea hydrochloride]",two,greater than ten,–,–,–
7.96,7.00 to 8.00,–,"COc1cccc(CNCCc2ccc(NC(=O)Nc3cnc(C#N)cn3)cc2Cl)c1 [Example 12, 1-{3-Chloro-4-[2-(3-methoxy-benzylamino)-ethyl]-phenyl}-3-(5-cyano-pyrazin-2-yl)-urea]",–,three; also recorded: greater than ten,–,–,–
7.16,–,–,"N#Cc1cnc(NC(=O)Nc2cccc(CCNCc3ccc(F)cc3)c2)cn1 [Example 34, 1-(5-Cyano-pyrazin-2-yl)-3-{3-[2-(4-fluoro-benzylamino)-ethyl]-phenyl}-urea]",–,three,–,–,–
6.49,6.00 to 7.00,–,"N#Cc1cnc(NC(=O)Nc2ccc(CNCc3ccccc3)cc2)cn1 [Example 29, 1-[4-(Benzylamino-methyl)-phenyl]-3-(5-cyano-pyrazin-2-yl)-urea]",–,–,–,four,4 fold
8.57,> 8.00,–,"COc1cc(CCNCCc2ccc(F)cc2)ccc1NC(=O)Nc1cnc(C#N)cn1 [Example 31, 1-(5-Cyano-pyrazin-2-yl)-3-(4-{2-[2-(4-fluoro-phenyl)-ethylamino]-ethyl}-2-methoxy-phenyl)-urea]",–,three,–,–,–
8.10,> 8.00,–,"N#Cc1cnc(NC(=O)Nc2ccc(CCNCc3ccc(F)c(F)c3)c(Cl)c2)cn1 [Example 40, 1-{3-Chloro-4-[2-(3,4-difluoro-benzylamino)-ethyl]-phenyl}-3-(5-cyano-pyrazin-2-yl)-urea]",–,three,–,–,–
8.46,> 8.00,–,"COc1ccc(CNCCc2ccc(NC(=O)Nc3cnc(C#N)cn3)cc2Cl)cc1 [Example 15, 1-{3-Chloro-4-[2-(4-methoxy-benzylamino)-ethyl]-phenyl}-3-(5-cyano-pyrazin-2-yl)-urea]",–,three; also recorded: greater than ten,–,–,–
7.42,7.00 to 8.00,–,"N#Cc1cnc(NC(=O)Nc2ccc(CCNCc3ccc(F)cc3F)c(Cl)c2)cn1 [Example 5, 1-{3-Chloro-4-[2-(2,4-difluoro-benzylamino)-ethyl]-phenyl}-3-(5-cyano-pyrazin-2-yl)-urea]",–,three,–,–,–
7.43,7.00 to 8.00,–,"N#Cc1cnc(NC(=O)Nc2ccc(CCNCc3cccc(Cl)c3)c(Cl)c2)cn1 [Example 13, 1-{3-Chloro-4-[2-(3-chloro-benzylamino)-ethyl]-phenyl}-3-(5-cyano-pyrazin-2-yl)-urea hydrochloride]",two,–,–,–,–
–,–,7.00,"COc1cc(CNCc2ccccc2)ccc1NC(=O)Nc1cnc(C)cn1 [Compound 338, reference compound]",–,–,5 fold,–,–
7.89,7.00 to 8.00,–,"COc1ccccc1CNCCc1ccc(NC(=O)Nc2cnc(C#N)cn2)cc1Cl [Example 16, 1-{3-Chloro-4-[2-(2-methoxy-benzylamino)-ethyl]-phenyl}-3-(5-cyano-pyrazin-2-yl)-urea]",two,–,–,–,–
9.49,> 8.00,–,"CC(C)Oc1cc(CCNCc2ccc(F)cc2)c(Cl)cc1NC(=O)Nc1cnc(C#N)cn1 [Example 46, 1-{5-Chloro-4-[2-(4-fluoro-benzylamino)-ethyl]-2-isopropoxy-phenyl}-3-(5-cyano-pyrazin-2-yl)-urea hydrochloride]",–,–,–,–,–
9.14,> 8.00,–,"COc1cccc([C@H](C)NCCc2cc(OC)c(NC(=O)Nc3cnc(C#N)cn3)cc2Cl)c1 [Example 65, 1-(5-Chloro-2-methoxy-4-{2-[(S)-1-(3-methoxy-phenyl)-ethylamino]-ethyl}-phenyl)-3-(5-cyano-pyrazin-2-yl)-urea hydrochloride]",–,–,–,–,–
8.19,> 8.00,–,"COc1cc(CCNCc2ccc(F)cc2F)ccc1NC(=O)Nc1cnc(C#N)cn1 [Example 30, 1-(5-Cyano-pyrazin-2-yl)-3-{4-[2-(2,4-difluoro-benzylamino)-ethyl]-2-methoxy-phenyl}-urea]",–,–,–,–,–
8.08,> 8.00,–,"COc1cc(OCCNCc2ccc(F)cc2)c(Cl)cc1NC(=O)Nc1cnc(C#N)cn1 [Example 47, 1-{5-Chloro-4-[2-(4-fluoro-benzylamino)-ethoxy]-2-methoxy-phenyl}-3-(5-cyano-pyrazin-2-yl)-urea hydrochloride]",–,–,–,–,–
7.33,7.00 to 8.00,–,"N#Cc1cnc(NC(=O)Nc2ccc(CCNCCc3ccc(F)cc3F)c(Cl)c2)cn1 [Example 28, 1-(3-Chloro-4-{2-[2-(2,4-difluoro-phenyl)-ethylamino]-ethyl}-phenyl)-3-(5-cyano-pyrazin-2-yl)-urea]",–,–,–,–,–

# — patent US8716287B2, “Pharmaceutical compounds” (Sentinel Oncology Limited, priority 2010, dated 2014)
